Measurements published in ChEMBL document CHEMBL1201862, “PubChem BioAssay data set” (2004).
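Values below derive from 48-hour exposures of cells grown in 96-well plates, with endpoints linearly interpolated between the two concentrations bracketing the appropriate inhibition level. GI50: concentration for 50% inhibition of growth.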 The source made the active and inactive calls. Cut-off read from the data, not from the text of the source: active = GI50 up to about 1.1 µM and inactive = higher.

How the values were obtained:
Assay in all cases: NCI tumour cell line growth inhibition, 48 h
[1] = tested on: A498
[2] = tested on: COLO 205
[3] = tested on: HCT-15
[4] = tested on: HT-29
[5] = tested on: K562
[6] = tested on: KM12
[7] = tested on: NCI-H226
[8] = tested on: OVCAR-5
[9] = tested on: RXF 393
[10] = tested on: SK-MEL-28
[11] = tested on: SNB-19
[12] = tested on: SW-620
[13] = tested on: TK-10
[14] = tested on: UO-31
[15] = tested on: SR

| Compound | GI50 [1] | GI50 [2] | GI50 [3] [µM] | GI50 [4] | GI50 [5] | GI50 [6] | GI50 [7] | GI50 [8] | GI50 [9] | GI50 [10] | GI50 [11] | GI50 [12] | GI50 [13] | GI50 [14] | GI50 [15] |
| --- | --- | --- | --- | --- | --- | --- | --- | --- | --- | --- | --- | --- | --- | --- | --- |
| Cc1nc2ccccc2c(=O)n1/N=C(\N=N\c1ccccc1)c1ccccc1Cl | 20.6 µM (inactive) | > 100 µM (inactive) | 48.1 | 43.8 µM (inactive) | 30.6 µM (inactive) | 41.4 µM (inactive) | 14.5 µM (inactive) | > 100 µM (inactive) | 21.6 µM (inactive) | 79.3 µM (inactive) | 48.1 µM (inactive) | > 88.5 µM (inactive) | 38.9 µM (inactive) | 29.2 µM (inactive) | – |
| CC1=C(C)CC2(SC1)C(=O)c1ccccc1C2=O | > 100 µM (inactive) | > 100 µM (inactive) | > 100 | > 100 µM (inactive) | > 100 µM (inactive) | > 100 µM (inactive) | > 100 µM (inactive) | > 100 µM (inactive) | > 100 µM (inactive) | – | > 100 µM (inactive) | > 100 µM (inactive) | > 100 µM (inactive) | 66.1 µM (inactive) | > 100 µM (inactive) |
| Cc1cc(Cl)ccc1N1C(=O)C(=O)C(c2nc3ccccc3s2)C(=O)C1=O | > 100 µM (inactive) | > 100 µM (inactive) | > 100 | > 100 µM (inactive) | > 100 µM (inactive) | > 100 µM (inactive) | > 100 µM (inactive) | > 100 µM (inactive) | – | > 100 µM (inactive) | > 100 µM (inactive) | > 100 µM (inactive) | > 100 µM (inactive) | > 100 µM (inactive) | > 100 µM (inactive) |
| O=C(O/N=C1/CCC/C1=C\c1ccccc1)c1ccc([N+](=O)[O-])cc1 | > 100 µM (inactive) | > 100 µM (inactive) | > 100 | > 100 µM (inactive) | > 100 µM (inactive) | > 100 µM (inactive) | > 100 µM (inactive) | > 100 µM (inactive) | 84.7 µM (inactive) | > 100 µM (inactive) | – | > 100 µM (inactive) | > 100 µM (inactive) | 25.3 µM (inactive) | > 100 µM (inactive) |
| COCCOCOc1ccc(OCOCCOC)c2c1C(=O)c1ccccc1C2=O | 68.7 µM (inactive) | 54.1 µM (inactive) | 30.3 | 37.2 µM (inactive) | 24.7 µM (inactive) | > 75.9 µM (inactive) | 90.2 µM (inactive) | > 100 µM (inactive) | 29.4 µM (inactive) | > 100 µM (inactive) | > 87.9 µM (inactive) | 36.5 µM (inactive) | > 73.6 µM (inactive) | 28.7 µM (inactive) | – |
| Cn1nc(-c2ccccc2NC(=O)C(F)(F)F)c(=O)n(C)c1=S | – | > 10 µM (inactive) | – | 25.8 µM (inactive) | 15.9 µM (inactive) | 25.7 µM (inactive) | 38.5 µM (inactive) | 69.3 µM (inactive) | 39.9 µM (inactive) | 12 µM (inactive) | 38.8 µM (inactive) | 34.5 µM (inactive) | 32.3 µM (inactive) | 21.7 µM (inactive) | 18.1 µM (inactive) |
| CCOC(=O)C1Cc2c(ccc(OC)c2OC)C(=O)C1N (centres undefined) | – | > 100 µM (inactive) | > 100 | > 100 µM (inactive) | > 100 µM (inactive) | > 100 µM (inactive) | > 100 µM (inactive) | > 100 µM (inactive) | > 100 µM (inactive) | > 100 µM (inactive) | > 100 µM (inactive) | > 100 µM (inactive) | > 100 µM (inactive) | > 100 µM (inactive) | 41.2 µM (inactive) |
| NC(=O)/C=C/C(=O)O | – | > 5000 µM (inactive) | > 5000 | > 5000 µM (inactive) | > 5000 µM (inactive) | > 5000 µM (inactive) | > 5000 µM (inactive) | > 5000 µM (inactive) | > 5000 µM (inactive) | > 5000 µM (inactive) | – | > 5000 µM (inactive) | > 5000 µM (inactive) | > 5000 µM (inactive) | > 5000 µM (inactive) |
| O=C(CNC(=O)OCc1ccccc1)Oc1ccccc1 | > 100 µM (inactive) | > 100 µM (inactive) | > 100 | > 100 µM (inactive) | > 100 µM (inactive) | > 100 µM (inactive) | > 100 µM (inactive) | > 100 µM (inactive) | > 100 µM (inactive) | > 100 µM (inactive) | – | – | > 100 µM (inactive) | > 100 µM (inactive) | > 100 µM (inactive) |
| CC(=O)Nc1ccc(/C=C(\NC(=O)c2ccccc2)c2nc3ccc4c(c3[nH]2)C(=O)c2ccccc2C4=O)cc1 | 7.78 µM (inactive) | 57.8 µM (inactive) | 39.2 | 45.6 µM (inactive) | 19.9 µM (inactive) | – | > 100 µM (inactive) | > 100 µM (inactive) | 4.66 µM (inactive) | 45 µM (inactive) | 35.2 µM (inactive) | 18.9 µM (inactive) | 17.5 µM (inactive) | 1.59 µM (inactive) | – |
| Cc1ccc(-n2c(C)nc3c2C(=O)c2ccccc2C3=O)cc1 | – | 14.6 µM (inactive) | 7.53 | 11.9 µM (inactive) | 5.86 µM (inactive) | > 100 µM (inactive) | > 100 µM (inactive) | – | > 100 µM (inactive) | 52.6 µM (inactive) | 71.9 µM (inactive) | 33.5 µM (inactive) | > 100 µM (inactive) | 66.7 µM (inactive) | > 100 µM (inactive) |
| COC(=O)c1c2c(cc3c1CC1(Cc4cc5c(c(C(C)=O)c4C1)CCC5)C3)CCC2 (centres undefined) | – | > 100 µM (inactive) | – | 40.3 µM (inactive) | 35.2 µM (inactive) | > 100 µM (inactive) | – | > 100 µM (inactive) | 20.2 µM (inactive) | > 100 µM (inactive) | 58.3 µM (inactive) | > 100 µM (inactive) | > 100 µM (inactive) | 38 µM (inactive) | 43.7 µM (inactive) |
| OC1C2CCC1C1C3C=CC(C3)C21 (centres undefined) | – | > 100 µM (inactive) | 77.4 | > 100 µM (inactive) | 70.6 µM (inactive) | 99.3 µM (inactive) | 58.5 µM (inactive) | 63.4 µM (inactive) | 47 µM (inactive) | > 100 µM (inactive) | > 100 µM (inactive) | > 100 µM (inactive) | > 100 µM (inactive) | > 100 µM (inactive) | 54.7 µM (inactive) |
| Cc1c(C(=O)O)n(C)c(=O)n(C)c1=O | > 100 µM (inactive) | > 100 µM (inactive) | > 100 | > 100 µM (inactive) | > 100 µM (inactive) | > 100 µM (inactive) | > 100 µM (inactive) | > 100 µM (inactive) | > 100 µM (inactive) | > 100 µM (inactive) | > 100 µM (inactive) | > 100 µM (inactive) | > 100 µM (inactive) | > 100 µM (inactive) | – |
| COc1cc2cccc(NC(=O)c3cc(OC)c(OC)c(OC)c3Br)c2cc1OC | 30.5 µM (inactive) | 12.9 µM (inactive) | – | 21.8 µM (inactive) | 12.5 µM (inactive) | 11.1 µM (inactive) | – | 10 µM (inactive) | – | 16.1 µM (inactive) | 14.2 µM (inactive) | 24.8 µM (inactive) | 29.2 µM (inactive) | 5.9 µM (inactive) | – |
| COc1ccc(NC(=O)CSc2nnc(-c3ccc(NC(C)=O)cc3)o2)cc1 | 15.5 µM (inactive) | 19.4 µM (inactive) | 11.2 | 11.1 µM (inactive) | 21.4 µM (inactive) | 15.1 µM (inactive) | 24.3 µM (inactive) | 14.4 µM (inactive) | 14.5 µM (inactive) | 18.7 µM (inactive) | – | – | 21.7 µM (inactive) | 17.7 µM (inactive) | – |
| COc1ccc(-c2ccccc2)c2[nH]c3c(c12)CCNC3=O | > 100 µM (inactive) | > 100 µM (inactive) | > 100 | > 100 µM (inactive) | > 100 µM (inactive) | > 100 µM (inactive) | > 100 µM (inactive) | > 100 µM (inactive) | 45.6 µM (inactive) | – | > 100 µM (inactive) | > 100 µM (inactive) | > 100 µM (inactive) | > 100 µM (inactive) | > 100 µM (inactive) |
| CC(CNCCCNCCNCCCNCO)[N+](=O)[O-] (centres undefined) | 17.5 µM (inactive) | 6.52 µM (inactive) | 10.8 | 21.3 µM (inactive) | 3.44 µM (inactive) | 16.1 µM (inactive) | – | 13.9 µM (inactive) | 15.8 µM (inactive) | 13.6 µM (inactive) | > 100 µM (inactive) | 3.6 µM (inactive) | 2.49 µM (inactive) | 16.9 µM (inactive) | 3.39 µM (inactive) |
| CC(=O)CN(Cc1cc(C)c2c(c1)c1ccccc1n2Cc1ccccc1)S(=O)(=O)c1ccc(C)cc1 | – | > 100 µM (inactive) | – | > 100 µM (inactive) | > 100 µM (inactive) | > 100 µM (inactive) | > 100 µM (inactive) | – | – | > 100 µM (inactive) | > 100 µM (inactive) | > 100 µM (inactive) | > 100 µM (inactive) | 57.7 µM (inactive) | > 100 µM (inactive) |
| COc1ccccc1CCc1cc(OC)c(OC)c(OC)c1 | 57.9 µM (inactive) | 42.2 µM (inactive) | 36.1 | 41.5 µM (inactive) | 33 µM (inactive) | 38.5 µM (inactive) | 39.8 µM (inactive) | 1.56 µM (inactive) | 20.9 µM (inactive) | 65.6 µM (inactive) | 75.9 µM (inactive) | 47.5 µM (inactive) | 76.7 µM (inactive) | 22.9 µM (inactive) | – |
| Clc1ccc(SC(/C=C/NNC2=NN=C(c3ccccc3)C(c3ccccc3)N2)c2ccccc2)cc1 (centres undefined) | 28.2 µM (inactive) | 20.8 µM (inactive) | 26.9 | 15.1 µM (inactive) | 18.2 µM (inactive) | 21 µM (inactive) | 13.4 µM (inactive) | 33.8 µM (inactive) | 6.28 µM (inactive) | 20.8 µM (inactive) | 80.5 µM (inactive) | 33.5 µM (inactive) | 36.5 µM (inactive) | 13.2 µM (inactive) | – |
